Results from patent US20210128596A1, “COMPOSITIONS AND METHODS FOR TREATING SEPTIC CARDIOMYOPATHY” (UNIVERSITY OF PENNSYLVANIA, priority 2017, published 2021).
“Also recorded” adds a separate entry of the source.

What was measured:
[1] = tested on: permeabilized adult cardiomyocytes; assay: Calcium uptake assay in permeabilized adult cardiomyocytes; assay type: in vivo, mouse; details: cardiomyocytes isolated 12 h after CLP, 6 h after LGM2605
Procedure: Calcium uptake assay in permeabilized adult cardiomyocytes Cardiomyocytes were isolated from mice 12 hours after CLP or sham surgery and 6 hours after LGM2605 or saline injection. Calcium uptake was performed as previously described^22 and detailed below. Before permeabilization, cardiomyocytes were washed in a Ca free buffer (120 mM NaCl, 5 mM KCL 1 mM KH2PO4, 0.2 mM MgCl2, 0.1 mM EGTA and 20 mM HEPES-NaOH, at pH 7.4) and stored on ice for at least 10 min. Cardiomyocytes were pelleted by centrifugation and transferred to an intracellular-like medium (permeabilization buffer: 120 mM KCl, 10 mM. NaCl, 1 mM KH2PO4, 20 mM, 4 HEPES-Tris, at pH 7.2, protease inhibitors (EDTA-free complete tablets, Roche Applied Science), 2 μM thapsigargin and digitonin (40 μg ml^−1)). The cell suspension supplemented with succinate (2 mM) was placed in a fluorimeter and permeabilized by gentle stirring. Fura2FF (0.5 μM) was added at 0 s, and JC-1 (800 nM) at 20 s. Fluorescence signal was monitored in a temperature-controlled (37° C.) multiwavelength-excitation dual-wavelength-emission spectrofluorometer (Delta RAM, Photon Technology International) using 490-nm excitation/535-nm emission for the JC-1 monomer. 570-nm excitation/595-nm emission for the J-aggregate of JC-1 and 340-nm/380-nm for Fura2FF. At 400 s, a single 10 μM Ca^2+ pulse was added, and changes in cytosolic [Ca^2] was monitored. […]

MCU and MICU1 = MCU and MICU1 expression in heart tissue of CLP mice; assay type: in vivo, mouse
Procedure: Mice were either sham treated (n=3) or subjected to cecal ligation puncture (CLP, n=6). SDG was administered to three mice following CLP.
RNA purification and gene expression analysis—Total RNA was purified from AC16 cells or hearts using the TRIzol reagent according to the instructions of the manufacturer (Invitrogen). DNase-treated RNA was used for cDNA synthesis using the ProtoScript II First Strand cDNA Synthesis Kit (New England Biolabs). Quantitative real-time PCR was performed with the Sybr Select Master Mix (Applied Biosystems). Incorporation of the SYBR green dye into the PCR products was monitored with the Applied Biosystems StepOnePlus Real-Time PCR System. Samples were normalized against mouse 36B4 or human rps13 RNA.
Protein purification and analysis—Isolated heart tissue or AC16 cells were homogenized in radioimmune precipitation assay buffer containing protease and phosphatase inhibitors (Pierce Protease and Phosphatase Inhibitor Mini Tablets, Thermo Scientific). 30-50 μg of total protein extract was applied to SDS-PAGE and transferred onto nitrocellulose membranes.

With `COc1cc(C[C@@H](CO[C@@H]2O[C@H](CO)[C@@H](O)[C@H](O)[C@H]2O)[C@H](CO[C@@H]2O[C@H](CO)[C@@H](O)[C@H](O)[C@H]2O)Cc2ccc(O)c(OC)c2)ccc1O` [LGM2605, secoisolariciresinol diglucoside] the mitochondrial calcium uptake [1] was “increased mitochondrial Ca^2+ uptake rate and release of Ca^2+ following CCCP administration beyond that observed for sham operated mice”, the mitochondrial calcium uptake ([1]; listed as SDG) was “mitochondrial calcium uptake was increased” and the “MCU protein level (western blot)” value (MCU and MICU1; heart tissue, SDG following CLP, listed as SDG) was “increases MCU protein level; also recorded: increased protein expression of the mitochondrial calcium uniporter”. For the same molecule, the “MCU and MICU1 mRNA and protein expression” value (MCU and MICU1; ventricular tissue 12 hours post-CLP, LGM2605 6 hrs post-CLP) was “did not affect expression of these proteins”.
